Patent US10799507B2, “5-(7H-pyrrolo[2,3-d]pyrimidin-4-yl)-5-azaspiro[2.5]octane-8-carboxylic acid derivatives as novel JAK kinase inhibitors” (LEO Pharma A/S, priority 2017, dated 2020)

How the values were obtained:
[1] = target: JAK1 (Homo sapiens (Human), UniProt P23458); assay: JAK kinase assay (HTRF), JAK1; type: biochemical; details: catalytic domain, ATP at Km (7 μM)
Outline: (§1)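 Catalytic-domain human JAK1 (GST-tagged, aa 850-1154) or His-tagged JAK2, baculovirus-expressed, phosphorylated 1 µM biotinylated TK peptide at Km ATP (JAK1 7 µM, 10 mM MgCl2, 50 nM SEB; JAK2 4 µM, 5 mM MgCl2) in pH 7.0 Hepes, 20-30 min RT. EDTA stop; overnight streptavidin-XL665/cryptate HTRF read.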

[2] = target: JAK2 (Homo sapiens (Human), UniProt O60674); assay: JAK kinase assay (HTRF), JAK2; type: biochemical; details: catalytic domain, ATP at Km (4 μM)
Chain of JAK2 (O60674 849-1124): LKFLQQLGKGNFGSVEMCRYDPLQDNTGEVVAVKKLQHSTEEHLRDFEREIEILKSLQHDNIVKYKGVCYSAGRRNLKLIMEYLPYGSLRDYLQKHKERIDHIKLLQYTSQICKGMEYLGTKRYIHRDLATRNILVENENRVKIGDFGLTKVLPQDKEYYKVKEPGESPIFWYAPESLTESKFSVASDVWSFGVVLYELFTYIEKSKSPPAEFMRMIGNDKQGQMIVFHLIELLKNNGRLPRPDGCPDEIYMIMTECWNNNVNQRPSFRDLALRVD
Outline: as §1

[3] = target: JAK3 (Homo sapiens (Human), UniProt P52333); assay: JAK kinase assay (HTRF), JAK3; type: biochemical; details: catalytic domain, ATP at Km (2 μM)
Chain of JAK3 (P52333 822-1111): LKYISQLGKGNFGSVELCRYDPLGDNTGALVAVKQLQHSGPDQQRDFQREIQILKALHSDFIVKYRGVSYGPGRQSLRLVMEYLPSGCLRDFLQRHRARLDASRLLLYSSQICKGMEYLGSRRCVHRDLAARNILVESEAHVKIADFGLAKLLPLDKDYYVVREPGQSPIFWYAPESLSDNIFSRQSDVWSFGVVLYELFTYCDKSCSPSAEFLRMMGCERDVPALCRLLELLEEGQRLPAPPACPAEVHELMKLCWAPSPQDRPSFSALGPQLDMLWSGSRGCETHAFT
Outline: (§2)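 Catalytic-domain human kinases, GST-tagged TYK2 (aa 871-1187) and His-tagged JAK3, phosphorylate 1 μM TK Substrate-Biotin for 20-30 min at RT in 50 mM Hepes pH 7.0, 5 mM MgCl2, ATP at Km (TYK2 13 μM with 50 nM SEB; JAK3 2 μM). Phosphorylation detected by HTRF.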

[4] = target: TYK2 (Homo sapiens (Human), UniProt P29597); assay: JAK kinase assay (HTRF), TYK2; type: biochemical; details: catalytic domain, ATP at Km (13 μM)
Chain of TYK2 (P29597 871-1187): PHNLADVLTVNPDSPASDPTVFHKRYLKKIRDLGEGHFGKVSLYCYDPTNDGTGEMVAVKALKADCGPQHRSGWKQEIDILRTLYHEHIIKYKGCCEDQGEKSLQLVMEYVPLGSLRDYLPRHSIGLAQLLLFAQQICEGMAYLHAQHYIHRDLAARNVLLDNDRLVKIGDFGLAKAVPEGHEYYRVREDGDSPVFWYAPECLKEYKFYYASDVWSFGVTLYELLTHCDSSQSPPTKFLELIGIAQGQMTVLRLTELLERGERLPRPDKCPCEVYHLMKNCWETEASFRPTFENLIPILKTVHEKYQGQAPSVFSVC
Outline: as §2

[5] = in vitro metabolic stability in human liver microsomes; type: in vitro ADME; details: human, liver microsomes, 0.5 μM compound, 0.5 mg/mL microsomes, NADPH, 40 min, 37° C.; read-out: Human liver microsome Clapp (apparent intrinsic clearance)
Outline: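 Compounds at 0.5 μM incubated in duplicate with human liver microsomes (0.5 mg/mL), phosphate buffer and NADPH at 37 °C for 40 min, sampled at 0, 5, 10, 20, 40 min into cold acetonitrile. LC-TOF-MS depletion gave elimination rate constant, from which apparent intrinsic clearance (Clapp) was calculated.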

Chain of JAK1 (P23458 850-1154): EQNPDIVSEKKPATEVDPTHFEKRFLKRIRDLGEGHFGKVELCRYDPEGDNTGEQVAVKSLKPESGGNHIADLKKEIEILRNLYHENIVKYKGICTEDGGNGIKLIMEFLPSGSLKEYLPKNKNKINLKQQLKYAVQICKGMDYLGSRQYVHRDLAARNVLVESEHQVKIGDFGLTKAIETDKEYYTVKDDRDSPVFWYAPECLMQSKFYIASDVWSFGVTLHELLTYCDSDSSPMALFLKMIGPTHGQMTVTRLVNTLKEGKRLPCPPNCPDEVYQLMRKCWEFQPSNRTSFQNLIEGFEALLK

SMILES	EC50 [1] [nM]	EC50 [2] [nM]	EC50 [3] [nM]	EC50 [4] [nM]	CLint scaled at 0.5 μM [5] [mL/min/kg]
C[C@@](CO)(NC(=O)[C@H]1CCN(c2ncnc3[nH]ccc23)CC12CC2)c1ccc(C#N)cn1 [Example 57, (8S)-N-[(1R)-1-(5-cyano-2-pyridyl)-2-hydroxy-1-methyl-ethyl]-5-(7H-pyrrolo[2,3-d]pyrimidin-4-yl)-5-azaspiro[2.5]octane-8-carboxamide]	4.1	9	21.3	193	39
O=C(OCC1CC(F)(F)C1)C1CCN(c2ncnc3[nH]ccc23)CC12CC2 (stereo not shown) [Example 153, (3,3-difluorocyclobutyl)methyl 5-(7H-pyrrolo[2,3-d]pyrimidin-4-yl)-5-azaspiro[2.5]octane-8-carboxylate]	2.3	3.2	8.9	68	160
C[C@H](NC(=O)[C@H]1CCN(c2ncnc3[nH]ccc23)CC12CC2)[C@@H](O)c1ccc(F)c(F)c1 [Example 149, (8S)-N-[(1S,2S)-2-(3,4-difluorophenyl)-2-hydroxy-1-methyl-ethyl]-5-(7H-pyrrolo[2,3-d]pyrimidin-4-yl)-5-azaspiro[2.5]octane-8-carboxamide]	0.4	200	0.6	4.2	> 200
O=C(NCC1(O)CCC1)[C@H]1CCN(c2ncnc3[nH]ccc23)CC12CC2 [Example 68, (8S)-N-[(1-hydroxycyclobutyl)methyl]-5-(7H-pyrrolo[2,3-d]pyrimidin-4-yl)-5-azaspiro[2.5]octane-8-carboxamide]	5.1	11.8	29.6	78.1	23
O=C(NCC1(CO)CCCC1)C1CCN(c2ncnc3[nH]ccc23)CC12CC2 (stereo not shown) [Example 58, N-[[1-(hydroxymethyl)cyclopentyl]methyl]-5-(7H-pyrrolo[2,3-d]pyrimidin-4-yl)-5-azaspiro[2.5]octane-8-carboxamide]	4.1	13	30.3	142	143
C[C@H](NC(=O)[C@H]1CCN(c2ncnc3[nH]ccc23)CC12CC2)[C@H](O)c1ccc(F)cc1 [Example 45, (8S)-N-[(1S,2R)-2-(4-fluorophenyl)-2-hydroxy-1-methyl-ethyl]-5-(7H-pyrrolo[2,3-d]pyrimidin-4-yl)-5-azaspiro[2.5]octane-8-carboxamide]	3.1	4.6	15.7	37.9	> 200
N#CCC1(COC(=O)C2CCN(c3ncnc4[nH]ccc34)CC23CC3)CC1 (stereo not shown) [Example 164, [1-(cyanomethyl)cyclopropyl]methyl 5-(7H-pyrrolo[2,3-d]pyrimidin-4-yl)-5-azaspiro[2.5]octane-8-carboxylate]	4	5	19	70	> 200
O=C(NC[C@@H](O)C1CCCCC1)[C@H]1CCN(c2ncnc3[nH]ccc23)CC12CC2 [Example 4, (8S)-N-[(2S)-2-cyclohexyl-2-hydroxy-ethyl]-5-(7H-pyrrolo[2,3-d]pyrimidin-4-yl)-5-azaspiro[2.5]octane-8-carboxamide]	0.5	1.2	3.4	4	> 200
O=C(OCC1(CO)CC(F)(F)C1)[C@H]1CCN(c2ncnc3[nH]ccc23)CC12CC2 [Example 160, [3,3-difluoro-1-(hydroxymethyl)cyclobutyl]methyl (8S)-5-(7H-pyrrolo[2,3-d]pyrimidin-4-yl)-5-azaspiro[2.5]octane-8-carboxylate]	0.3	0.8	1.8	3.7	121
O=C(N[C@H](CO)C(=O)OCC1CC1)[C@H]1CCN(c2ncnc3[nH]ccc23)CC12CC2 [Example 91, cyclopropylmethyl (2R)-3-hydroxy-2-[[(8S)-5-(7H-pyrrolo[2,3-d]pyrimidin-4-yl)-5-azaspiro[2.5]octane-8-carbonyl]amino]propanoate]	8.2	17.7	47.3	163	17
O=C(OCC1(CO)CS(=O)(=O)C1)[C@H]1CCN(c2ncnc3[nH]ccc23)CC12CC2 [Example 162, [3-(hydroxymethyl)-1,1-dioxo-thietan-3-yl]methyl (8S)-5-(7H-pyrrolo[2,3-d]pyrimidin-4-yl)-5-azaspiro[2.5]octane-8-carboxylate]	0.2	0.6	1.5	3.6	< 10
